Values of other authors, collected in patent US20110256530A1, “PRODUCTS AND METHODS FOR TISSUE PRESERVATION” (GenVault Corporation, priority 2010, published 2011).
One block for each molecule: values may come before it.

How the values were obtained:
[1] = charge state, pH 7, literature references (30)-(33)
nucleases = settings: Table I, description in words
[2] = 25° C.

Useful Chemical Properties [1]: Cation at pH 7 (32)
Molecule: Cn1cncc1C[C@H](NC(=O)CCN)C(=O)O [Anserine, Anserine (Alanine-methyl-histidine)]

Molecule: O=C(O)CN(CCN(CC(=O)O)CC(=O)O)CC(=O)O [EDTA]
Activity (nucleases): Divalent Chelator, Inhibitor

Useful Chemical Properties [1]: Neutral zwitterions
Molecule: N[C@@H](Cc1c[nH]cn1)C(=O)O [Histidine]

Useful Chemical Properties [1]: Neutral (31)
Molecule: OC[C@@H](O)[C@@H](O)[C@H](O)[C@H](O)CO [Mannitol]

Molecule: C=O [formalin, methylene glycol]
permeation through tissue block [2]: about 1 mm of tissue block per hour

Molecule: Aurinetricarboxylic Acid [Aurinetricarboxylic Acid (ATA)n]
Activity (nucleases): derivative, broad spectrum

Molecule: Uridine-Vanadate [Uridine-Vanadate U-V04]
Activity (nucleases): RNase specific Inhibitor

B1: RI: Large (~450 residues, ~49 kDa), acidic leucine-rich repeat protein that binds ribonucleases (protein, UniProt P13489 2-461, looked up)
Ribonuclease inhibitor: SLDIQSLDIQCEELSDARWAELLPLLQQCQVVRLDDCGLTEARCKDISSALRVNPALAELNLRSNELGDVGVHCVLQGLQTPSCKIQKLSLQNCCLTGAGCGVLSSTLRTLPTLQELHLSDNLLGDAGLQLLCEGLLDPQCRLEKLQLEYCSLSAASCEPLASVLRAKPDFKELTVSNNDINEAGVRVLCQGLKDSPCQLEALKLESCGVTSDNCRDLCGIVASKASLRELALGSNKLGDVGMAELCPGLLHPSSRLRTLWIWECGITAKGCGDLCRVLRAKESLKELSLAGNELGDEGARLLCETLLEPGCQLESLWVKSCSFTAACCSHFSSVLAQNRFLLELQISNNRLEDAGVRELCQGLGQPGSVLRVLWLADCDVSDSSCSSLAATLLANHSLRELDLSNNCLGDAGILQLVESVRQPGCLLEQLVLYDIYWSEEMEDRLQALEKDKPSLRVIS
complexes with certain ribonucleases (ribonucleases): extremely tight complexes
